Laboratory results taken from US11673869B2, “4-oxazolidinone antimicrobial agents” (NORTH CAROLINA STATE UNIVERSITY, priority 2016, dated 2023).
In brackets after ≈: the same amount, converted by molar mass.

Legend:
[1] = test system: S. aureus; test: Broth microdilution MIC determination, S. aureus; format: cell-based, Staphylococcus aureus; conditions: minimum inhibitory concentration, recorded after 16 h, unit assumed
[2] = test system: MRSA (ATCC 33591) methicillin-resistant Staphylococcus aureus; test: Broth microdilution MIC determination, MRSA; format: cell-based; conditions: minimum inhibitory concentration, MRSA ATCC 33591, Mueller-Hinton broth, 37° C., recorded after 16 h; unit assumed
Experimental: (§1) Broth microdilution protocol for minimum inhibition concentration (MIC) determination. Fresh Mueller-Hinton broth (MHB) ˜3 ml, was inoculated (5×10^5 CFU mL^−1) with MRSA (ATCC 33591) methicillin-resistant Staphylococcus aureus. The resulting bacterial suspension was aliquoted (1 mL) into culture tubes and test compound (10 mM DMSO stock solution) was added to reach the final concentration of the interest. Bacteria not treated with the antimicrobial compound served as the control. Rows 2-12 of a 96-well microtiter plate were filled with remaining bacterial subcultures. The samples containing test compound were aliquoted (200 μL) into the first row wells of the microtiter plate (2 wells per compound). Row 1 wells were mixed 6-8 times and 100 μL was transferred down to row 2. Row 2 wells were mixed 6-8 times, followed by a 100 μL transfer from row 2 down to row 3. The rest of the rows of the plate were serially diluted in similar fashion. The plate was covered with sealing tape for 96-well plates (ThermoFisher) and incubated under stationary conditions at 37° C. A duplicate of the plate was prepared.
(§2) MIC values for vancomycin, linezolid, and tetracycline are included in Table 1 for purposes of comparison.

[3] = test system: A. baumannii; test: Broth microdilution MIC determination, A. baumannii; format: cell-based, Acinetobacter baumannii; conditions: minimum inhibitory concentration, recorded after 16 h, unit assumed
Experimental: [The procedure below names another organism; the source lists this organism under the same test.] as §1, §2

| SMILES | MIC S. aureus [1] | MIC MRSA [2] | MIC A. baumannii [3] |
| --- | --- | --- | --- |
| CCCCCCC/C(C)=C/C(=O)/C=C1\NC(=O)[C@H](CCCC)O1 [Compound 1, (S)-Lipoxazolidinone A] | 1 µg/mL (≈ 3.11 µM) | 0.5 µg/mL (≈ 1.56 µM) | > 50 µg/mL |
| CCCCCCC/C(C)=C/C(=O)/C=C1\NC(=O)[C@@H](CCCC)O1 [Compound 2, (R)-Lipoxazolidinone A] | 4 µg/mL (≈ 12.4 µM) | 1 µg/mL (≈ 3.11 µM) |  |
| CCCCCCC/C=C/C(=O)/C=C1\NC(=O)[C@H](CCCC)O1 [Compound 3, (S,E)-5-Butyl-2-((E)-2-oxoundec-3-en-1-ylidene)oxazolidin-4-one] | 0.5 µg/mL (≈ 1.63 µM) | 0.125 µg/mL (≈ 0.407 µM) | > 50 µg/mL |
| CCCCCCCCCC(=O)/C=C1\NC(=O)[C@H](CCCC)O1 [Compound 4, (S,E)-5-Butyl-2-(2-oxoundecylidene)oxazolidin-4-one] | 2 µg/mL (≈ 6.46 µM) | 0.25 µg/mL (≈ 0.808 µM) |  |
| CCCC[C@@H]1O/C(=C/C(=O)CCC)NC1=O [Compound 5, (S,E)-5-Butyl-2-(2-oxopentylidene)oxazolidin-4-one] | 16 µg/mL (≈ 71 µM) | 16 µg/mL (≈ 71 µM) | > 50 µg/mL |
| CCCC[C@@H]1O/C(=C/C(C)=O)NC1=O [Compound 6, (S,E)-5-Butyl-2-(2-oxopropylidene)oxazolidin-4-one] | 128 µg/mL (≈ 649 µM) | > 128 µg/mL |  |
| CCCCCCCCCCCCCCCC(=O)/C=C1\NC(=O)[C@H](CCCC)O1 [Compound 7, (S,E)-5-Butyl-2-(2-oxoheptadecylidene)oxazolidin-4-one] | 128 µg/mL (≈ 325 µM) | 16 µg/mL (≈ 40.6 µM) |  |
| CCCCCCCCCC(=O)/C=C1\NC(=S)[C@H](CCCC)O1 [Compound 8, (S,E)-1-(5-butyl-4-thioxooxazolidin-2-ylidene)undecan-2-one] | 128 µg/mL (≈ 393 µM) | 64 µg/mL (≈ 197 µM) |  |
| CCCCCCCCCC(=O)/C=C1\NC(=O)[C@H](CC(C)C)O1 [Compound 9, (S,E)-5-isobutyl-2-(2-oxoundecylidene)oxazolidin-4-one] | 0.5 µg/mL (≈ 1.62 µM) | 0.0675 µg/mL (≈ 0.218 µM) | > 128 µg/mL |
| CCCCCCCCCC(=O)/C=C1\NC(=O)[C@H]([C@@H](C)CC)O1 [Compound 10, (S,E)-5-((S)-sec-butyl)-2-(2-oxoundecylidene)oxazolidin-4-one] | 0.5 µg/mL (≈ 1.62 µM) | 0.0675 µg/mL (≈ 0.218 µM) | > 128 µg/mL |
| CCCCCCCCCC(=O)/C=C1\NC(=O)[C@H](C(C)C)O1 [Compound 11, (S,E)-5-isopropyl-2-(2-oxoundecylidene)oxazolidin-4-one] | 0.5 µg/mL (≈ 1.69 µM) | 0.0338 µg/mL (≈ 0.114 µM) | > 64 µg/mL |
| CCCCCCCCCC(=O)/C=C1\NC(=O)[C@H](Cc2ccccc2)O1 [Compound 12, (S,E)-5-benzyl-2-(2-oxoundecylidene)oxazolidin-4-one] | 4 µg/mL (≈ 11.6 µM) | 0.5 µg/mL (≈ 1.46 µM) |  |
| CN(C)[C@@H]1C(O)=C(C(N)=O)C(=O)[C@@]2(O)C(O)=C3C(=O)c4c(O)cccc4[C@@](C)(O)[C@H]3C[C@@H]12 [tetracycline, reference compound] | 0.25 µg/mL (≈ 0.563 µM) |  | 2 µg/mL (≈ 4.5 µM) |
| CN[C@H](CC(C)C)C(=O)N[C@H]1C(=O)N[C@@H](CC(N)=O)C(=O)N[C@H]2C(=O)N[C@H]3C(=O)N[C@H](C(=O)N[C@H](C(=O)O)c4cc(O)cc(O)c4-c4cc3ccc4O)[C@H](O)c3ccc(c(Cl)c3)Oc3cc2cc(c3O[C@@H]2O[C@H](CO)[C@@H](O)[C@H](O)[C@H]2O[C@H]2C[C@](C)(N)[C@H](O)[C@H](C)O2)Oc2ccc(cc2Cl)[C@H]1O [vancomycin, reference compound] | 1 µg/mL (≈ 0.69 µM) | 1 µg/mL (≈ 0.69 µM) | > 100 µg/mL |

Now from value to compound:

| MIC S. aureus [1] | MIC MRSA [2] | MIC A. baumannii [3] | SMILES |
| --- | --- | --- | --- |
| 4 µg/mL (≈ 15.8 µM) | 2 µg/mL (≈ 7.89 µM) |  | CCCCCCCCCC(=O)/C=C1\NC(=O)CO1 [Compound 13, (E)-2-(2-Oxoundecylidene)oxazolidin-4-one] |
| 1 µg/mL (≈ 3.74 µM) | 0.8 µg/mL (≈ 2.99 µM) |  | CCCCCCCCCC(=O)/C=C1\NC(=O)[C@H](C)O1 [Compound 14, (S,E)-5-Methyl-2-(2-oxoundecylidene)oxazolidin-4-one] |
| 2 µg/mL (≈ 6.07 µM) | 1 µg/mL (≈ 3.04 µM) | > 128 µg/mL | CCCCCCCCCC(=O)/C=C1\NC(=O)[C@H](c2ccccc2)O1 [Compound 15, (S,E)-2-(2-oxoundecylidene)-5-phenyloxazolidin-4-one] |
|  | 2 µg/mL (≈ 7.71 µM) |  | CC(C)[C@@H]1O/C(=C/C(=O)Cc2ccccc2)NC1=O [Compound 16, (S,E)-5-isopropyl-2-(2-oxo-3-phenylpropylidene)oxazolidin-4-one] |
|  | 0.5 µg/mL (≈ 1.49 µM) |  | CC(C)[C@@H]1O/C(=C/C(=O)C(c2ccccc2)c2ccccc2)NC1=O [Compound 17, (S,E)-5-isopropyl-2-(2-oxo-3,3-diphenylpropylidene)oxazolidin-4-one] |
|  | 32 µg/mL (≈ 119 µM) |  | COC(=O)CCCC(=O)/C=C1\NC(=O)[C@H](C(C)C)O1 [Compound 18, methyl (S,E)-6-(5-isopropyl-4-oxooxazolidin-2-ylidene)-5-oxohexanoate] |
|  | 16 µg/mL (≈ 64.2 µM) |  | C#CCCCCC(=O)/C=C1\NC(=O)[C@H](C(C)C)O1 [Compound 19, (S,E)-5-isopropyl-2-(2-oxooct-7-yn-1-ylidene)oxazolidin-4-one] |
| > 128 µg/mL | > 128 µg/mL |  | CC(=O)/C=C1\NC(=O)[C@H](C)O1 [Compound 20, (S,E)-5-methyl-2-(2-oxopropylidene)oxazolidin-4-one] |
| 0.5 µg/mL (≈ 1.62 µM) | 0.0675 µg/mL (≈ 0.218 µM) |  | CCCCCCCCCC(=O)/C=C1\NC(=O)[C@H](C(C)(C)C)O1 [Compound 21, (S,E)-5-(tert-butyl)-2-(2-oxoundecylidene)oxazolidin-4-one] |
| 2 µg/mL (≈ 7.11 µM) | 1 µg/mL (≈ 3.55 µM) |  | CCCCCCCCCC(=O)/C=C1\NC(=O)[C@H](CC)O1 [Compound 22, (S,E)-5-ethyl-2-(2-oxoundecylidene)oxazolidin-4-one] |
| 0.25 µg/mL (≈ 0.745 µM) | 0.125 µg/mL (≈ 0.373 µM) |  | CC(C)[C@@H]1O/C(=C/C(=O)Cc2ccc(-c3ccccc3)cc2)NC1=O [Compound 23, (S,E)-2-(3-([1,1′-biphenyl]-4-yl)-2-oxopropylidene)-5-isopropyloxazolidin-4-one] |
| 1 µg/mL (≈ 2.96 µM) | 0.5 µg/mL (≈ 1.48 µM) |  | CC(C)[C@@H]1O/C(=C/C(=O)Cc2ccc(Br)cc2)NC1=O [Compound 24, (S,E)-2-(3-(4-bromophenyl)-2-oxopropylidene)-5-isopropyloxazolidin-4-one] |
| 0.5 µg/mL (≈ 1.48 µM) | 1 µg/mL (≈ 2.96 µM) | > 100 µg/mL | CC(=O)NC[C@H]1CN(c2ccc(N3CCOCC3)c(F)c2)C(=O)O1 [linezolid, reference compound] |
